Data from patent publication US20200338045A1, “ISOINDOLINE COMPOSITIONS AND METHODS FOR TREATING NEURODEGENERATIVE DISEASE” (priority 2017, published 2020).
“Also recorded” adds a separate entry of the source. Like-named read-outs stand apart in the source and are kept apart here.

How the values were obtained:
[1] = Phase 1 single ascending dose (SAD)/food-effect plasma pharmacokinetics; assay type: in vivo, human; settings: for Cmax / Tmax / AUC(0-inf) / half-life: human, plasma, oral; for AUC(0-inf): read-out: AUC0-inf (mean)
Protocol: (§1) Part A was a single ascending dose cohort study in which healthy, young subjects (less than 65 years old) received one dose of study drug in the morning after an overnight fast. Cohort dosing started at 10 mg and increased to 30 mg, 90 mg, 180 mg, 450 mg, and 1120 mg in subsequent cohorts. Six drug-treated and two placebo-treated subjects were randomized in each cohort. A seventh cohort of six subjects each received a single 90 mg dose of drug 30 min. after a meal. Following completion of all safety assessments and blood draws for PK analyses, subjects were discharged on Day 3.
In Part A, blood draws for assessment of PK parameters occurred pre-dose and at 15, 30, 45, 60, and 90 minutes post dose as well as at 2, 3, 4, 8, 12, 24, 36, and 48 hours post dose. […] In Part B, blood samples for plasma PK analysis were taken on Day 1 at pre-dose and at 2 hours post-dose, on Day 3 at pre-dose and at 15, 30 and 45 minutes and 1, 2, 3, 4, 8, 12 and 24 hours post-dose, on Days 4, 6, 8 and 10 at pre-dose and at 1.5 hours post-dose and following the final dose on Day 14 at pre-dose and 15, 30 and 45 minutes and 1, 2, 4, 8, 12, 24, 36 and 48 hours post-dose.
This was assessed by analysis of variance (ANOVA) of log-transformed Cmax, AUC0-24, AUC0-48, and/or AUC0-inf, using a model with factors for treatment (fed status or age [young vs. elderly] status) and subject within sequence. Treatment mean differences and 90% confidence intervals of the log transformed PK parameters were back-transformed, to present the geometric least squares means ratios and 90% confidence limits.

[2] = Phase 1 SAD safety (adverse events, laboratory, ECG); assay type: in vivo, human
Protocol: as §1
Safety variables, including incidence of adverse events (AEs), vital signs, clinical laboratory findings, 12-lead electrocardiographs (ECGs), physical examination, and affective and cognitive measures (Part B only), were summarized for all subjects who received study drug.

[3] = 30 mg, single 30 mg, fasted (n = 6)
[4] = 90 mg, single 90 mg, fasted (n = 6)
[5] = 90 mg, single 90 mg, fed (n = 6)
[6] = 180 mg, single 180 mg, fasted (n = 6)
[7] = 450 mg, single 450 mg, fasted (n = 6)
[8] = 1120 mg, single 1120 mg, fasted (n = 6)
[9] = single 90 mg, geometric least-squares mean

CC(C)(C)Oc1cc(CCC(C)(C)N2Cc3ccc(S(C)(=O)=O)cc3C2)ccc1O [CT1812]
food effect on CT1812 exposure ([1]; 90 mg fed vs. fasted): not considered clinically significant; also recorded: no significant difference | Cmax and AUC / plasma concentration vs dose ([1]; SAD 10 mg to 1120 mg): dose proportional; also recorded: slightly greater than proportional with dose; also recorded: slightly greater than dose proportionally | Cmax ([1]; 10 mg, single 10 mg, fasted, Day 1 (n = 6)): 5.07 ng/mL | Tmax ([1]; 10 mg, single 10 mg, fasted, Day 1 (n = 6), read-out: Tmax (median)): 1.5 h | AUC(0-inf) ([1]; 10 mg, single 10 mg, fasted, Day 1, n = 5): 30.6 ng·h/mL | half-life ([1]; 10 mg, single 10 mg, fasted, Day 1, n = 5, read-out: t1/2 (mean) (converted)): 12 h | Cmax [1, 3]: 19.5 ng/mL | AUC(0-inf) [1, 3]: 77.2 ng·h/mL | Tmax ([1]; 30 mg, single 30 mg, fasted (n = 6), read-out: Tmax (median)): 0.88 h | half-life ([1]; 30 mg, single 30 mg, fasted (n = 6), read-out: t1/2 (mean) (converted)): 14 h | Cmax [1, 4]: 109 ng/mL | AUC(0-inf) [1, 4]: 305 ng·h/mL | Tmax ([1]; 90 mg, single 90 mg, fasted (n = 6), read-out: Tmax (median)): 1.25 h | half-life ([1]; 90 mg, single 90 mg, fasted (n = 6), read-out: t1/2 (mean) (converted)): 12.1 h | Cmax [1, 5]: 81.7 ng/mL | AUC(0-inf) [1, 5]: 261 ng·h/mL | Tmax ([1]; 90 mg, single 90 mg, fed (n = 6), read-out: Tmax (median)): 1.5 h | half-life ([1]; 90 mg, single 90 mg, fed (n = 6), read-out: t1/2 (mean) (converted)): 11.6 h | Cmax [1, 6]: 161 ng/mL | AUC(0-inf) [1, 6]: 478 ng·h/mL | Tmax ([1]; 180 mg, single 180 mg, fasted (n = 6), read-out: Tmax (median)): 1.25 h | half-life ([1]; 180 mg, single 180 mg, fasted (n = 6), read-out: t1/2 (mean) (converted)): 11.1 h | Cmax [1, 7]: 504 ng/mL | AUC(0-inf) [1, 7]: 1750 ng·h/mL | Tmax ([1]; 450 mg, single 450 mg, fasted (n = 6), read-out: Tmax (median)): 1.5 h | half-life ([1]; 450 mg, single 450 mg, fasted (n = 6), read-out: t1/2 (mean) (converted)): 12.2 h | Cmax [1, 8]: 1460 ng/mL | AUC(0-inf) [1, 8]: 6320 ng·h/mL | Tmax ([1]; 1120 mg, single 1120 mg, fasted (n = 6), read-out: Tmax (median)): 1.5 h | half-life ([1]; 1120 mg, single 1120 mg, fasted (n = 6), read-out: t1/2 (mean) (converted)): 11.8 h | Tmax ([1]; part A (SAD), 10-1120 mg, read-out: median Tmax in plasma, range over doses): 0.88 to 1.5 h | half-life ([1]; part A (SAD), read-out: apparent mean half-life, range over doses): 11.1 to 14 h | AUC0-48h lower under fed vs fasted conditions [1, 9]: ~20% | AUC0-inf lower under fed vs fasted conditions [1, 9]: ~20% | Cmax lower under fed vs fasted conditions [1, 9]: approximately 40% | ECG parameters or changes ([2]; SAD): No ECG parameters or changes were assessed as clinically significant | deaths or serious adverse events ([2]; SAD): no deaths or other serious adverse events | All TEAEs, number of subjects ([2]; SAD Total Active (n = 42)): 18 | Headache, % of subjects ([2]; SAD Total Active (n = 42)): (14%) | Headache, number of subjects ([2]; SAD Total Active (n = 42)): 6 | Nausea, % of subjects ([2]; SAD Total Active (n = 42)): (14%) | Nausea, number of subjects ([2]; SAD Total Active (n = 42)): 6 | All TEAEs, % of subjects ([2]; single 10 mg fasted (n = 6)): (33%) | All TEAEs, number of subjects ([2]; single 10 mg fasted (n = 6)): 2 | Headache, % of subjects ([2]; single 10 mg fasted (n = 6)): (50%) | Headache, number of subjects ([2]; single 10 mg fasted (n = 6)): 3 | Nausea, % of subjects ([2]; single 10 mg fasted (n = 6)): (17%) | Nausea, number of subjects ([2]; single 10 mg fasted (n = 6)): 1 | All TEAEs, % of subjects ([2]; single 30 mg fasted (n = 6)): (67%) | All TEAEs, number of subjects ([2]; single 30 mg fasted (n = 6)): 4 | All TEAEs, % of subjects ([2]; single 90 mg fed (n = 6)): (33%) | All TEAEs, number of subjects ([2]; single 90 mg fed (n = 6)): 2 | Headache, % of subjects ([2]; single 90 mg fed (n = 6)): (17%) | Headache, number of subjects ([2]; single 90 mg fed (n = 6)): 1 | All TEAEs, % of subjects ([2]; single 180 mg fasted (n = 6)): (33%) | All TEAEs, number of subjects ([2]; single 180 mg fasted (n = 6)): 2 | All TEAEs, % of subjects ([2]; single 450 mg fasted (n = 6)): (67%) | All TEAEs, number of subjects ([2]; single 450 mg fasted (n = 6)): 4 | Headache, % of subjects ([2]; single 450 mg fasted (n = 6)): (17%) | Headache, number of subjects ([2]; single 450 mg fasted (n = 6)): 1 | Nausea, % of subjects ([2]; single 450 mg fasted (n = 6)): (33%) | Nausea, number of subjects ([2]; single 450 mg fasted (n = 6)): 2 | All TEAEs, % of subjects ([2]; single 1120 mg fasted (n = 6)): (67%) | All TEAEs, number of subjects ([2]; single 1120 mg fasted (n = 6)): 4 | Headache, % of subjects ([2]; single 1120 mg fasted (n = 6)): (17%) | Headache, number of subjects ([2]; single 1120 mg fasted (n = 6)): 1 | Nausea, % of subjects ([2]; single 1120 mg fasted (n = 6)): (50%) | Nausea, number of subjects ([2]; single 1120 mg fasted (n = 6)): 3 | tolerability, single dose ([2]; single dose 10 mg to 1120 mg, healthy young subjects): safe and well tolerated
